This assay addresses JAK1 (Homo sapiens (Human), UniProt P23458). In words: Analysis of JAK1 activity inhibition ability (ADP-Glo Kinase Assay). In kind it is biochemical. The note with it: JAK1 enzyme, ADP-Glo luminescence, ATP 250 uM, IRS-itide substrate, 30° C. 40 minutes; read-out: IC50. Summed up:
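JAK1 enzyme, IRS-itide substrate (40 ng/mL) and 250 uM ATP, both as prepared in kinase buffer (Tris-HCl pH 7.5, MgCl2, BSA, DTT), reacted with compound 40 min at 30 °C. ADP formed was detected by ADP-Glo luminescence; IC50 is the concentration giving 50% inhibition versus control.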

Sequence of JAK1 (P23458 whole entry): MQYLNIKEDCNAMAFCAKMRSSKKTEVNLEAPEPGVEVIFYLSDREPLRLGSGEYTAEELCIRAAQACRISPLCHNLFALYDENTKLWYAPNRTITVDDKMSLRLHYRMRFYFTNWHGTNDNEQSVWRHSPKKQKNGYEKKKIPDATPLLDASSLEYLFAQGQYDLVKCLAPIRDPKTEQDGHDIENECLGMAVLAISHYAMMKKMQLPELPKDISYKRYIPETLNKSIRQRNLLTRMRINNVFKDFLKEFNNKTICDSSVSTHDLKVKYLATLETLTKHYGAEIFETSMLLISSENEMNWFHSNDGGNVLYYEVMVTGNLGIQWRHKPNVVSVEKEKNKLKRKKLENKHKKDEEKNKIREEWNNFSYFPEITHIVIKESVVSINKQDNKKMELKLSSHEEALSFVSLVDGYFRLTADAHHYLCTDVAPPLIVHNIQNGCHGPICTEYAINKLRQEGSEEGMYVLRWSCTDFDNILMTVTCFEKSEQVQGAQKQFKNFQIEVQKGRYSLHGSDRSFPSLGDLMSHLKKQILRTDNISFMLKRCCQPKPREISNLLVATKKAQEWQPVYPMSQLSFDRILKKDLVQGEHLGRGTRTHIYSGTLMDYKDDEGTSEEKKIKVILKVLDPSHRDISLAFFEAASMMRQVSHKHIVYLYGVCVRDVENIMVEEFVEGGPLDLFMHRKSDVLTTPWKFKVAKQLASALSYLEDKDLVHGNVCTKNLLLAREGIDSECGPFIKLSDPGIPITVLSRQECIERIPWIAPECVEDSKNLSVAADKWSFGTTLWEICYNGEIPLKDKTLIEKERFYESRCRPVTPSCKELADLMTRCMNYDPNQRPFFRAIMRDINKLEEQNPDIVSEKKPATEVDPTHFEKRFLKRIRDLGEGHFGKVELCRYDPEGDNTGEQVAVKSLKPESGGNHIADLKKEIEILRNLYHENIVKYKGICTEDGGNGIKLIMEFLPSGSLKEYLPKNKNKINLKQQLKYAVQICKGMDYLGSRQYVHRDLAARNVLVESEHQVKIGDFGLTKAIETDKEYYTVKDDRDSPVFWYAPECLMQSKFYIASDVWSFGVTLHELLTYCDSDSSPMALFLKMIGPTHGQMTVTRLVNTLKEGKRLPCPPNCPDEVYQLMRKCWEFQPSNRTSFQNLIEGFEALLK

Turning to `C=CCC(=O)N1CC=C(c2cc(NC(=O)C3CC3)nc3[nH]ccc23)CC1` [Example 270, N-(4-(1-(but-3-enoyl)-1,2,3,6-tetrahydropyridin-4-yl)-1H-pyrrolo[2,3-b]pyridin-6-yl)cyclopropanecarboxamide], the IC50 was above 200 nM.
With `CCC(C#N)C(=O)N1CC=C(c2cc(NC(=O)C3CC3)nc3[nH]ccc23)CC1` (centres unmarked) [Example 271, N-(4-(1-(2-cyanobutanoyl)-1,2,3,6-tetrahydropyridin-4-yl)-1H-pyrrolo[2,3-b]pyridin-6-yl)cyclopropanecarboxamide], the IC50 was 20 to 200 nM.
To `O=C(Nc1cc(C2=CCN(C(=O)C(F)(F)F)CC2)c2cc[nH]c2n1)C1CC1` [Example 272, N-(4-(1-(2,2,2-trifluoroacetyl)-1,2,3,6-tetrahydropyridin-4-yl)-1H-pyrrolo[2,3-b]pyridin-6-yl)cyclopropanecarboxamide] belongs 20 to 200 nM.
In the case of `CC1CC1C(=O)N1CC=C(c2cc(NC(=O)C3CC3)nc3[nH]ccc23)CC1` (centres unmarked) [Example 273, N-(4-(1-(2-methylcyclopropane-1-carbonyl)-1,2,3,6-tetrahydropyridin-4-yl)-1H-pyrrolo[2,3-b]pyridin-6-yl)cyclopropanecarboxamide], the IC50 was 20 to 200 nM.
To `O=C(Nc1cc(C2=CCN(C(=O)C3CC3F)CC2)c2cc[nH]c2n1)C1CC1` (centres unmarked) [Example 274, N-(4-(1-(2-fluorocyclopropane-1-carbonyl)-1,2,3,6-tetrahydropyridin-4-yl)-1H-pyrrolo[2,3-b]pyridin-6-yl)cyclopropanecarboxamide] belongs below 20 nM; to `N#CCC(=O)N1CC=C(c2cc(NC(=O)C3CC3)[n+]([O-])c3[nH]ccc23)CC1` [Example 275, 4-(1-(2-cyanoacetyl)-1,2,3,6-tetrahydropyridin-4-yl)-6-(cyclopropanecarboxamido)-1H-pyrrolo[2,3-b]pyridine 7-oxide], below 20 nM; to `O=C(Nc1cc(C2=CCN(C(=O)Cc3ccc(F)c(F)c3)CC2)c2cc[nH]c2n1)C1CC1` [Example 276, N-(4-(1-(2-(3,4-difluorophenyl)acetyl)-1,2,3,6-tetrahydropyridin-4-yl)-1H-pyrrolo[2,3-b]pyridin-6-yl)cyclopropanecarboxamide], 20 to 200 nM.
As to `O=C(Nc1cc(C2=CCN(C(=O)c3ccncc3)CC2)c2cc[nH]c2n1)C1CC1` [Example 277, N-(4-(1-isonicotinoyl-1,2,3,6-tetrahydropyridin-4-yl)-1H-pyrrolo[2,3-b]pyridin-6-yl)cyclopropanecarboxamide], the IC50 was above 200 nM.
On to `O=C(Nc1cc(C2=CCN(C(=O)c3ccoc3)CC2)c2cc[nH]c2n1)C1CC1` [Example 278, N-(4-(1-(furan-3-carbonyl)-1,2,3,6-tetrahydropyridin-4-yl)-1H-pyrrolo[2,3-b]pyridin-6-yl)cyclopropanecarboxamide], for which the IC50 lay within 20 to 200 nM.
The result for `O=C(Nc1cc(C2=CCN(C(=O)c3ccc(F)cc3)CC2)c2cc[nH]c2n1)C1CC1` [Example 279, N-(4-(1-(4-fluorobenzoyl)-1,2,3,6-tetrahydropyridin-4-yl)-1H-pyrrolo[2,3-b]pyridin-6-yl)cyclopropanecarboxamide] reads 20 to 200 nM.
With `CN1CCC(C(=O)N2CC=C(c3cc(NC(=O)C4CC4)nc4[nH]ccc34)CC2)C1` (centres unmarked) [Example 280, N-(4-(1-(1-methylpyrrolidine-3-carbonyl)-1,2,3,6-tetrahydropyridin-4-yl)-1H-pyrrolo[2,3-b]pyridin-6-yl)cyclopropanecarboxamide], the IC50 is above 200 nM.
To `CN(C)CC(=O)N1CC=C(c2cc(NC(=O)C3CC3)nc3[nH]ccc23)CC1` [Example 281, N-(4-(1-(dimethylglycyl)-1,2,3,6-tetrahydropyridin-4-yl)-1H-pyrrolo[2,3-b]pyridin-6-yl)cyclopropanecarboxamide] belongs above 200 nM.
The result for `O=C(Nc1cc(C2=CCN(C(=O)C3CC3C(F)(F)F)CC2)c2cc[nH]c2n1)C1CC1` (centres unmarked) [Example 282, N-(4-(1-(2-(trifluoromethyl)cyclopropane-1-carbonyl)-1,2,3,6-tetrahydropyridin-4-yl)-1H-pyrrolo[2,3-b]pyridin-6-yl)cyclopropanecarboxamide] reads 20 to 200 nM; that for `CC1CN(C(=O)CC#N)CC=C1c1cc(NC(=O)C2CC2)nc2[nH]ccc12` (centres unmarked) [Example 283, N-(4-(1-(2-cyanoacetyl)-3-methyl-1,2,3,6-tetrahydropyridin-4-yl)-1H-pyrrolo[2,3-b]pyridin-6-yl)cyclopropanecarboxamide], below 20 nM.
To `CC1CN(C(=O)CCC#N)CC=C1c1cc(NC(=O)C2CC2)nc2[nH]ccc12` (centres unmarked) [Example 284, N-(4-(1-(3-cyanopropanoyl)-3-methyl-1,2,3,6-tetrahydropyridin-4-yl)-1H-pyrrolo[2,3-b]pyridin-6-yl)cyclopropanecarboxamide] belongs below 20 nM; to `CC1CN(C(=O)CCCC#N)CC=C1c1cc(NC(=O)C2CC2)nc2[nH]ccc12` (centres unmarked) [Example 285, N-(4-(1-(4-cyanobutanoyl)-3-methyl-1,2,3,6-tetrahydropyridin-4-yl)-1H-pyrrolo[2,3-b]pyridin-6-yl)cyclopropanecarboxamide], 20 to 200 nM.
Turning to `O=C(Nc1cc(C2=CCN(C(=O)c3cnon3)CC2)c2cc[nH]c2n1)C1CC1` [Example 286, N-(4-(1-(1,2,5-oxadiazole-3-carbonyl)-1,2,3,6-tetrahydropyridin-4-yl)-1H-pyrrolo[2,3-b]pyridin-6-yl)cyclopropanecarboxamide], the IC50 lay in the range of 20 to 200 nM.
The result for `O=C(Nc1cc(C2=CCN(C(=O)c3cnoc3)CC2)c2cc[nH]c2n1)C1CC1` [Example 287, N-(4-(1-(isoxazole-4-carbonyl)-1,2,3,6-tetrahydropyridin-4-yl)-1H-pyrrolo[2,3-b]pyridin-6-yl)cyclopropanecarboxamide] reads 20 to 200 nM.
On to `O=C(Nc1cc(C2=CCN(C(=O)c3ccno3)CC2)c2cc[nH]c2n1)C1CC1` [Example 288, N-(4-(1-(isoxazole-5-carbonyl)-1,2,3,6-tetrahydropyridin-4-yl)-1H-pyrrolo[2,3-b]pyridin-6-yl)cyclopropanecarboxamide], for which the IC50 fell in the range of 20 to 200 nM.
To `Cc1c(NC(=O)C2CC2)nc2[nH]ccc2c1C1=CCN(C(=O)CC#N)CC1` [Example 289, N-(4-(1-(2-cyanoacetyl)-1,2,3,6-tetrahydropyridin-4-yl)-5-methyl-1H-pyrrolo[2,3-b]pyridin-6-yl)cyclopropanecarboxamide] belongs above 200 nM; to `Cc1c(NC(=O)C2CC2)nc2[nH]ccc2c1C1=CCN(C(=O)CC(F)(F)F)CC1` [Example 290, N-(5-methyl-4-(1-(3,3,3-trifluoropropanoyl)-1,2,3,6-tetrahydropyridin-4-yl)-1H-pyrrolo[2,3-b]pyridin-6-yl)cyclopropanecarboxamide], above 200 nM.
The result for `O=C(Nc1cc(C2=CCN(C(=O)c3cscn3)CC2)c2cc[nH]c2n1)C1CC1` [Example 291, N-(4-(1-(thiazole-4-carbonyl)-1,2,3,6-tetrahydropyridin-4-yl)-1H-pyrrolo[2,3-b]pyridin-6-yl)cyclopropanecarboxamide] reads above 200 nM; that for `O=C(Nc1cc(C2=CCN(C(=O)c3cnsc3)CC2)c2cc[nH]c2n1)C1CC1` [Example 292, N-(4-(1-(isothiazole-4-carbonyl)-1,2,3,6-tetrahydropyridin-4-yl)-1H-pyrrolo[2,3-b]pyridin-6-yl)cyclopropanecarboxamide], below 20 nM.

For the origin of these results see patent publication US11524968B2, “Heterocyclic compound as a protein kinase inhibitor” (HK inno.N Corporation, priority 2017, dated 2022).
